Patent US5591602A (priority 1993, dated 1997)

How the values were obtained:
[1] = system: all known opioid receptor subtypes; settings: cited from earlier work
[2] = system: enkephalins; settings: peripheral administration; Bertolucci et al., 1992; cited from earlier work
[3] = system: μ receptors; settings: cited from earlier work
[4] = system: ε receptors; experiment: inhibition of cAMP formation in BHK cells expressing ε receptors; format: cell-based, human
[5] = system: κ and ε sites; settings: brain; Chang et al., 1981; cited from earlier work
[6] = target: T1, ε opioid receptor (Homo sapiens, UniProt P48145); experiment: ligand affinity/interaction profile of the cloned receptor; format: binding
T1 construct: a 2 kb fragment was removed from the 5' untranslated region of the gene and the shortened insert (2.5 kb) was subcloned; expressed in transfected cells; host or cells: COS and BHK cells (pRC/CMV vector)
T1 sequence (P48145 1-328 S296T): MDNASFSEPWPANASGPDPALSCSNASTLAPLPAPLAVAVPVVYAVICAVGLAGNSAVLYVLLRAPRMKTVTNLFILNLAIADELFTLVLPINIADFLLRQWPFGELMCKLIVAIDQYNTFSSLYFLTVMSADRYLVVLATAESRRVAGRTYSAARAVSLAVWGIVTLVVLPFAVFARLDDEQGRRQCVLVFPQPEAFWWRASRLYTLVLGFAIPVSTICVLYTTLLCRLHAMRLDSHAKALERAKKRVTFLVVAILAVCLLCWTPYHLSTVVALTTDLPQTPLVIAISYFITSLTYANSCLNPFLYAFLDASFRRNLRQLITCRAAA

[7] = system: U-69, 593 insensitive benzoinorphan site; settings: Nock et al., 1993; cited from earlier work

CCC12CCN(CC3(O)CC3)C(Cc3ccc(O)cc31)C2(C)C (stereo not shown) [[^3 H]bremazocine]
affinity for all known opioid receptor subtypes (in words) [1]: high affinity

CN1CC[C@]23c4c5ccc(O)c4O[C@H]2[C@@H](O)C=C[C@H]3[C@H]1C5 [Morphine]
release of enkephalins (in words) [2]: induces release of enkephalins | interaction with μ receptors (in words) [3]: interacts principally with μ receptors

CN1CC[C@]23CCCC[C@H]2[C@H]1Cc1ccc(O)cc13 [levorphanol]
inhibition of cAMP formation [4]: inhibition of cAMP formation

CC[C@]12CCN(CC3CC3)[C@H](C(=O)c3ccc(O)cc31)[C@@H]2C [ethylketocyclazocine]
labelling of opioid binding sites (in words) [5]: label two populations of non-μ, non-δ opioid binding sites

β-endorphin: endogenous opioid peptide with high affinity for the ε receptor
affinity of the receptor for the ligand (in words) [6]: high affinity | affinity for the U-69,593 insensitive site (in words) [7]: high affinity
